# Measurements reported in publication PMC6207720, “Identification and antitumor activity of a novel inhibitor of the NIMA-related kinase NEK6” (Scientific Reports, 2018).
# Assays:
# HCT15 (colon) = assay: Cell-based cytotoxicity assay (ATPlite), HCT15; settings: Homo sapiens, HCT-15, HCT15, 72 h, NA = not active (IC50 greater than 100 µM), read-out: IC50 Values (µM ± SEM)
# From the text: (§1) The following human carcinoma cell lines were used for the study: MDA-MB-231 and MCF-7 (breast cancer; ATCC, Sesto San Giovanni, MI), PEO1 and COV318 (ovarian cancer; ECACC, Salisbury, UK and ATCC), HCT-15 and SW948 (colon cancer; Public Health England, Salisbury, UK and ATCC), NCI-H1975 and NCI-H1299, (lung cancer; ATCC). Cells were routinely tested free of mycoplasma (MycoAlert mycoplasma detection kit, LONZA, Rockland, ME, USA) and validated by STR (Short Tandem Repeat) DNA profiling (BMR Genomics srl, PD). Cells were grown following supplier indication, in a fully humidified atmosphere of 5% CO2/95% air. All the reagents were purchased from Sigma-Aldrich (St. Louis, MO), if not otherwise specified.
# PEO1 (ovary) = assay: Cell-based cytotoxicity assay (ATPlite), PEO1; parameters: species or system human; settings: Homo sapiens; PEO1, 72 h, ATPlite; NA = not active (IC50 greater than 100 µM); read-out: IC50 Values (µM ± SEM)
# From the text: as §1
# PEO1 cells = assay: Cell cycle analysis by flow cytometry; format: cell-based, human; settings: 48 hours, compound at its IC50 concentration
# Experimental: In order to assess whether the ability of compound 8 to inhibit cell proliferation was accounted for by cell cycle-related changes in cell division, we analysed the progression of PEO1 cells through the cell cycle by flow cytometry at 24, 48 and 72 hours from treatment. PEO1 was selected since, in our experimental conditions, was the cell line showing the highest sensitivity to 8. […] The effect was already measurable at the first experimental time point (24 h) and remained stable over time (Fig. 8).
# PEO1 cell cycle perturbations induced by compound 8 (used at its IC50 concentration) were evaluated by standard flow cytometry methods. Briefly, at the end of each incubation period adherent cells were trypsinized, harvested and washed with cold phosphate-buffered saline several times. Cells were then counted, gently fixed in 70% v/v cold ethanol, adding the ethanol dropwise to the cell pellet while vortexing, and incubated at −20 °C for no longer than 7 days. Prior to DNA staining, fixed cells were spun down and treated with RNase (100 µg/ml) for 10 mins to ensure that only DNA was stained. 1 × 10^6/ml cells were then stained with propidium iodide (PI, 0.5 mg/ml) and stored at +4 °C overnight. The day after, stained cells were subjected to flow cytometry. Flow cytometry analysis was performed using the 6-parameter flow cytometer (2 scatter and 4 fluorescence signals) EPICS-XL (Beckman Coulter). A minimum of 30,000 cells of interest were acquired for each sample at a low flow rate (<200 events/sec). Analysis of cell cycle perturbation was performed by the ModFit LT software (Verity software house). Pulse shape processing was used to exclude cell doublets from the analysis.
smiles,measurement,setting,value
"CC1=C(C#N)C(O)=NC(=O)/C1=C\c1ccc(-c2ccccc2)o1 [Compound 8, (5Z)-2-hydroxy-4-methyl-6-oxo-5-[(5-phenylfuran-2-yl)methylidene]-5,6-dihydropyridine-3-carbonitrile]",IC50,HCT15 (colon),98.5 ± 0.5 µM
same,IC50,PEO1 (ovary),44 ± 6.5 µM
same,percentage of PEO1 cells in G0/G1,PEO1 cells,61%
same,percentage of PEO1 cells in G2/M,PEO1 cells,16%
same,percentage of PEO1 cells in S,PEO1 cells,23%
